In article PMC3465515 (Nuclear medicine and biology, 2012):
Where two headings read alike, the source gives them in different places.

Key:
[1] = biodistribution of [18F]6 in immature female Sprague-Dawley rats; type: in vivo; conditions: 1 h
[2] = type: in vivo, Sprague-Dawley rats; conditions: 1 h, Letrozole + PMSG treated
[3] = preliminary tissue distribution of [18F]6 in female C57BL/6 mice; type: in vivo; conditions: data not shown

percentage injected dose/gram, blood ([1]; DPN blocked (200 μg)): 0.22 ± 0.03 %ID/g
percentage injected dose/gram, blood ([1]; E2 blocked (estradiol 20 μg)): 0.25 ± 0.07 %ID/g
percentage injected dose/gram, blood ([1]; PPT blocked (200 μg)): 0.24 ± 0.06 %ID/g
percentage injected dose/gram, blood ([1]; 13 μCi iv): 0.22 ± 0.05 %ID/g
percentage injected dose/gram, bone ([1]; DPN blocked (200 μg)): 0.40 ± 0.04 %ID/g
percentage injected dose/gram, bone ([1]; E2 blocked (estradiol 20 μg)): 0.37 ± 0.04 %ID/g
percentage injected dose/gram, bone ([1]; PPT blocked (200 μg)): 0.43 ± 0.12 %ID/g
percentage injected dose/gram, bone ([1]; 13 μCi iv): 0.36 ± 0.04 %ID/g
percentage injected dose/gram, fat ([1]; DPN blocked (200 μg)): 0.58 ± 0.08 %ID/g
percentage injected dose/gram, fat ([1]; E2 blocked (estradiol 20 μg)): 0.58 ± 0.10 %ID/g
percentage injected dose/gram, fat ([1]; PPT blocked (200 μg)): 0.68 ± 0.19 %ID/g
percentage injected dose/gram, fat ([1]; 13 μCi iv): 0.55 ± 0.09 %ID/g
percentage injected dose/gram, heart ([1]; DPN blocked (200 μg)): 0.18 ± 0.03 %ID/g
percentage injected dose/gram, heart ([1]; E2 blocked (estradiol 20 μg)): 0.21 ± 0.04 %ID/g
percentage injected dose/gram, heart ([1]; PPT blocked (200 μg)): 0.19 ± 0.04 %ID/g
percentage injected dose/gram, heart ([1]; 13 μCi iv): 0.18 ± 0.04 %ID/g
percentage injected dose/gram, kidney ([1]; DPN blocked (200 μg)): 0.70 ± 0.10 %ID/g
percentage injected dose/gram, kidney ([1]; E2 blocked (estradiol 20 μg)): 0.78 ± 0.15 %ID/g
percentage injected dose/gram, kidney ([1]; PPT blocked (200 μg)): 0.78 ± 0.19 %ID/g
percentage injected dose/gram, kidney ([1]; 13 μCi iv): 0.64 ± 0.14 %ID/g
percentage injected dose/gram, liver ([1]; DPN blocked (200 μg)): 1.50 ± 0.20 %ID/g
percentage injected dose/gram, liver ([1]; E2 blocked (estradiol 20 μg)): 1.63 ± 0.26 %ID/g
percentage injected dose/gram, liver ([1]; PPT blocked (200 μg)): 1.54 ± 0.39 %ID/g
percentage injected dose/gram, liver ([1]; 13 μCi iv): 1.52 ± 0.23 %ID/g
percentage injected dose/gram, lung ([1]; DPN blocked (200 μg)): 0.33 ± 0.05 %ID/g
percentage injected dose/gram, lung ([1]; E2 blocked (estradiol 20 μg)): 0.39 ± 0.06 %ID/g
percentage injected dose/gram, lung ([1]; PPT blocked (200 μg)): 0.45 ± 0.12 %ID/g
percentage injected dose/gram, lung ([1]; 13 μCi iv): 0.39 ± 0.09 %ID/g
percentage injected dose/gram, muscle ([1]; DPN blocked (200 μg)): 0.15 ± 0.01 %ID/g
percentage injected dose/gram, muscle ([1]; E2 blocked (estradiol 20 μg)): 0.19 ± 0.05 %ID/g
percentage injected dose/gram, muscle ([1]; PPT blocked (200 μg)): 0.19 ± 0.05 %ID/g
percentage injected dose/gram, muscle ([1]; 13 μCi iv): 0.15 ± 0.03 %ID/g
percentage injected dose/gram, ovaries ([1]; DPN blocked (200 μg)): 0.33 ± 0.04 %ID/g
percentage injected dose/gram, ovaries ([1]; E2 blocked (estradiol 20 μg)): 0.44 ± 0.15 %ID/g
percentage injected dose/gram, ovaries ([1]; PPT blocked (200 μg)): 0.37 ± 0.13 %ID/g
percentage injected dose/gram, ovaries ([1]; 13 μCi iv): 0.30 ± 0.11 %ID/g
percentage injected dose/gram, spleen ([1]; DPN blocked (200 μg)): 0.15 ± 0.02 %ID/g
percentage injected dose/gram, spleen ([1]; E2 blocked (estradiol 20 μg)): 0.16 ± 0.03 %ID/g
percentage injected dose/gram, spleen ([1]; PPT blocked (200 μg)): 0.16 ± 0.05 %ID/g
percentage injected dose/gram, spleen ([1]; 13 μCi iv): 0.15 ± 0.03 %ID/g
percentage injected dose/gram, thymus ([1]; DPN blocked (200 μg)): 0.12 ± 0.02 %ID/g
percentage injected dose/gram, thymus ([1]; E2 blocked (estradiol 20 μg)): 0.13 ± 0.03 %ID/g
percentage injected dose/gram, thymus ([1]; PPT blocked (200 μg)): 0.12 ± 0.02 %ID/g
percentage injected dose/gram, thymus ([1]; 13 μCi iv): 0.12 ± 0.03 %ID/g
percentage injected dose/gram, uterus ([1]; DPN blocked (200 μg)): 0.23 ± 0.05 %ID/g
percentage injected dose/gram, uterus ([1]; E2 blocked (estradiol 20 μg)): 0.38 ± 0.25 %ID/g
percentage injected dose/gram, uterus ([1]; PPT blocked (200 μg)): 0.35 ± 0.15 %ID/g
percentage injected dose/gram, uterus ([1]; 13 μCi iv): 0.33 ± 0.14 %ID/g
percentage injected dose/gram, blood ([2]; DPN blocked (200 μg)): 0.17 ± 0.03 %ID/g
percentage injected dose/gram, blood ([2]; E2 blocked (estradiol 20 μg)): 0.19 ± 0.02 %ID/g
percentage injected dose/gram, blood ([2]; PPT blocked (200 μg)): 0.16 ± 0.03 %ID/g
percentage injected dose/gram, blood ([2]; 18 μCi iv): 0.23 ± 0.07 %ID/g
percentage injected dose/gram, bone ([2]; DPN blocked (200 μg)): 0.37 ± 0.07 %ID/g
percentage injected dose/gram, bone ([2]; E2 blocked (estradiol 20 μg)): 0.33 ± 0.02 %ID/g
percentage injected dose/gram, bone ([2]; PPT blocked (200 μg)): 0.34 ± 0.05 %ID/g
percentage injected dose/gram, bone ([2]; 18 μCi iv): 0.40 ± 0.10 %ID/g
percentage injected dose/gram, fat ([2]; DPN blocked (200 μg)): 0.53 ± 0.18 %ID/g
percentage injected dose/gram, fat ([2]; E2 blocked (estradiol 20 μg)): 0.50 ± 0.11 %ID/g
percentage injected dose/gram, fat ([2]; PPT blocked (200 μg)): 0.53 ± 0.16 %ID/g
percentage injected dose/gram, fat ([2]; 18 μCi iv): 0.49 ± 0.12 %ID/g
percentage injected dose/gram, heart ([2]; DPN blocked (200 μg)): 0.15 ± 0.02 %ID/g
percentage injected dose/gram, heart ([2]; E2 blocked (estradiol 20 μg)): 0.14 ± 0.01 %ID/g
percentage injected dose/gram, heart ([2]; PPT blocked (200 μg)): 0.14 ± 0.02 %ID/g
percentage injected dose/gram, heart ([2]; 18 μCi iv): 0.17 ± 0.03 %ID/g
percentage injected dose/gram, kidney ([2]; DPN blocked (200 μg)): 0.59 ± 0.11 %ID/g
percentage injected dose/gram, kidney ([2]; E2 blocked (estradiol 20 μg)): 0.55 ± 0.08 %ID/g
percentage injected dose/gram, kidney ([2]; PPT blocked (200 μg)): 0.51 ± 0.09 %ID/g
percentage injected dose/gram, kidney ([2]; 18 μCi iv): 0.66 ± 0.12 %ID/g
percentage injected dose/gram, liver ([2]; DPN blocked (200 μg)): 1.41 ± 0.22 %ID/g
percentage injected dose/gram, liver ([2]; E2 blocked (estradiol 20 μg)): 1.51 ± 0.13 %ID/g
percentage injected dose/gram, liver ([2]; PPT blocked (200 μg)): 1.40 ± 0.12 %ID/g
percentage injected dose/gram, liver ([2]; 18 μCi iv): 1.67 ± 0.31 %ID/g
percentage injected dose/gram, lung ([2]; DPN blocked (200 μg)): 0.36 ± 0.05 %ID/g
percentage injected dose/gram, lung ([2]; E2 blocked (estradiol 20 μg)): 0.38 ± 0.04 %ID/g
percentage injected dose/gram, lung ([2]; PPT blocked (200 μg)): 0.36 ± 0.06 %ID/g
percentage injected dose/gram, lung ([2]; 18 μCi iv): 0.41 ± 0.02 %ID/g
percentage injected dose/gram, muscle ([2]; DPN blocked (200 μg)): 0.13 ± 0.02 %ID/g
percentage injected dose/gram, muscle ([2]; E2 blocked (estradiol 20 μg)): 0.12 ± 0.01 %ID/g
percentage injected dose/gram, muscle ([2]; PPT blocked (200 μg)): 0.12 ± 0.02 %ID/g
percentage injected dose/gram, muscle ([2]; 18 μCi iv): 0.14 ± 0.03 %ID/g
percentage injected dose/gram, ovaries ([2]; DPN blocked (200 μg)): 0.32 ± 0.10 %ID/g
percentage injected dose/gram, ovaries ([2]; E2 blocked (estradiol 20 μg)): 0.30 ± 0.06 %ID/g
percentage injected dose/gram, ovaries ([2]; PPT blocked (200 μg)): 0.30 ± 0.05 %ID/g
percentage injected dose/gram, ovaries ([2]; 18 μCi iv): 0.34 ± 0.04 %ID/g
percentage injected dose/gram, spleen ([2]; DPN blocked (200 μg)): 0.12 ± 0.01 %ID/g
percentage injected dose/gram, spleen ([2]; E2 blocked (estradiol 20 μg)): 0.12 ± 0.07 %ID/g
percentage injected dose/gram, spleen ([2]; PPT blocked (200 μg)): 0.12 ± 0.02 %ID/g
percentage injected dose/gram, spleen ([2]; 18 μCi iv): 0.13 ± 0.16 %ID/g
percentage injected dose/gram, thymus ([2]; DPN blocked (200 μg)): 0.09 ± 0.02 %ID/g
percentage injected dose/gram, thymus ([2]; E2 blocked (estradiol 20 μg)): 0.10 ± 0.01 %ID/g
percentage injected dose/gram, thymus ([2]; PPT blocked (200 μg)): 0.08 ± 0.01 %ID/g
percentage injected dose/gram, thymus ([2]; 18 μCi iv): 0.10 ± 0.01 %ID/g
percentage injected dose/gram, uterus ([2]; DPN blocked (200 μg)): 0.22 ± 0.03 %ID/g
percentage injected dose/gram, uterus ([2]; E2 blocked (estradiol 20 μg)): 0.20 ± 0.04 %ID/g
percentage injected dose/gram, uterus ([2]; PPT blocked (200 μg)): 0.19 ± 0.02 %ID/g
percentage injected dose/gram, uterus ([2]; 18 μCi iv): 0.26 ± 0.07 %ID/g
tissue distribution (in words) [3]: elevated lung uptake
Structure (SMILES): C[C@]12CC[C@@H]3c4ccc(O)cc4CC[C@@]3(CC[18F])[C@@H]1CC[C@@H]2O [[^18F]6, 8β-(2-[^18F]fluoroethyl)estradiol]
blocking of ovary uptake by estradiol, DPN or PPT (in words) ([1]; ovary): nor was it substantially blocked by any of the three agents
